Experimental data taken from ChEMBL document CHEMBL4680320, “Exploiting the antiproliferative potential of spiropyrazoline oxindoles in a human ovarian cancer cell line” (Bioorg Med Chem, 2021).
Activity calls are given as the source filed them. The rule behind the calls is not given here.

How the values were obtained:
Fibroblast = assay: Cytotoxicity against human fibroblasts cells assessed as cell viability incubated for 48 hrs by MTS assay; format: cell-based
A2780 [1] = assay: Antiproliferative activity against human A2780 cells assessed as cell viability incubated for 48 hrs by MTS assay; format: functional, cell-based; settings: A2780, 48 h
MDA-MB-453 = assay: Antiproliferative activity against human MDA-MB 453 cells assessed as reduction in cell viability incubated for 48 hrs by MTS assay; format: functional, cell-based; settings: MDA-MB-453, 48 h
A2780 [2] = assay: Induction of intracellular reactive oxygen species production in human A2780 cells at 8.5 uM measured after 48 hrs by DCFH-DA probe based fluorescence microscopic analysis; format: functional, cell-based
A2780 [3] = assay: Induction of necrosis in human A2780 cells at 8.5 uM measured after 48 hrs by Annexin-V/propidium iodide staining-based flow cytometric analysis; format: functional, cell-based
DNA [4] = assay: Induction of DNA damage of Escherichia coli pUC18 plasmid DNA at 8.5 uM after 24 hrs by agarose gel electrophoresis method; format: nucleic-acid assay
A2780 [5] = assay: Induction of apoptosis in human A2780 cells assessed as increased BAX expression at 8.5 uM after 48 hrs by Western blot analysis; format: functional, cell-based
DNA [6] = assay: Induction of DNA damage in human A2780 cells assessed as DNA fragmentation at 8.5 uM after 48 hrs by agarose gel electrophoresis; format: cell-based
A2780 [7] = assay: Induction of autophagy in human A2780 cells assessed as autophagosome accumulation at 8.5 uM after 48 hrs by Hoechst staining based fluorescence microscopic analysis relative to control; format: functional, cell-based
Calf thymus DNA [8] = assay: Binding affinity to calf thymus DNA after 24 hrs by UV-vis spectroscopy; settings: Bos taurus
Calf thymus DNA [9] = assay: Binding affinity to calf thymus DNA at 100 uM by circular dichroism spectroscopy; settings: Bos taurus
A2780 [10] = assay: Induction of apoptosis in human A2780 cells assessed as decreased […] expression at 8.5 uM after 48 hrs by Western blot analysis; format: functional, cell-based
A2780 [11] = assay: Induction of mitochondrial membrane potential loss in human A2780 cells at 8.5 uM after 48 hrs by JC-1 staining based flow cytometry; format: functional, cell-based
A2780 [12] = assay: Induction of apoptosis in human A2780 cells assessed as late apoptotic cells at 8.5 uM measured after 48 hrs by Annexin-V/propidium iodide staining-based flow cytometric analysis (reference value: 6%); format: functional
A2780 [13] = assay: Effect on cell cycle distribution in human A2780 cells at 8.5 uM measured after 4 to 24 hrs by flow cytometry; format: functional, cell-based; settings: time 4-24 hrs
Cancer cell lines = assay: Induction of apoptosis in human A2780 cells assessed as DNA damage after 48 hrs by fluorescence microscopic analysis; format: functional, cell-based
A2780 [14] = assay: Induction of apoptosis in human A2780 cells assessed as apoptotic cells at 8.5 uM measured after 48 hrs by Hoechst staining based fluorescence microscopic analysis relative to control; format: functional
A2780 [15] = assay: Induction of apoptosis in human A2780 cells assessed as PARP level at 8.5 uM after 48 hrs by Western blot analysis; format: functional, cell-based

Compound | IC50 (A2780 [1]) [µM] | IC50 (MDA-MB-453) [µM] | IC50 (Fibroblast) [µM] | also measured
CC(C)(C)C1=NN(c2ccccc2)[C@]2(C(=O)Nc3cc(Cl)c(F)cc32)[C@H]1c1cccc(Cl)c1 | 11.4 | 14.7 | 14.9 | –
CC(C)(C)C1=NN(c2ccccc2)[C@]2(C(=O)Nc3ccc(Br)cc32)[C@H]1c1ccccc1 | 12.1 | 14.6 | 15.7 | –
CC(C)(C)C1=NN(c2ccccc2)[C@]2(C(=O)Nc3cc(Cl)c(F)cc32)[C@H]1c1cccc(Cl)c1F | 11.7 | 16.3 | 17.3 | –

These reach a lower IC50 (A2780 [1]). Values come first.

IC50 (A2780 [1]) [µM] | IC50 (MDA-MB-453) [µM] | Compound | IC50 (Fibroblast) [µM] | also measured
9.9 | 15 | CC(C)(C)C1=NN(c2ccc(Cl)cc2)[C@]2(C(=O)Nc3cc(Cl)c(F)cc32)[C@H]1c1cccc(Cl)c1F | 12.9 | –
8.5 | 11.3 | O=C1Nc2ccc(Br)cc2[C@]12[C@@H](c1ccccc1)C(c1ccccc1)=NN2c1ccccc1 | 55.2 | Activity (A2780 [2]): inactive; Activity (A2780 [3]): inactive; Activity (DNA [4]): inactive; Activity (A2780 [5]): Active; Activity (DNA [6]): inactive; Activity (A2780 [7]): Active; Kb (Calf thymus DNA [8]): 7.09 10^6/M; Activity (Calf thymus DNA [9]): Active; Activity (A2780 [10]): Active; Activity (A2780 [11]): Active; Activity (A2780 [12]): 13%; Activity (A2780 [13]): inactive; Activity (Cancer cell lines): Active; Activity (A2780 [14]): 31%; Activity (A2780 [15]): Active
0.6 | – | COc1cccc2c1C(=O)c1c(O)c3c(c(O)c1C2=O)C[C@@](O)(C(=O)CO)C[C@@H]3O[C@H]1C[C@H](N)[C@H](O)[C@H](C)O1 [DOXORUBICIN] | – | –
